The supplement of paper PMC10307832

Assays:
Assay in all cases: relative viability (nuclei count vs DMSO), 5 days (fraction); higher = more cells survive
Crenolanib + Bortezomib = compound: CC1(COc2ccc3c(c2)ncn3-c2ccc3cccc(N4CCC(N)CC4)c3n2)COC1 [Crenolanib] + CC(C)C[C@H](NC(=O)[C@H](Cc1ccccc1)NC(=O)c1cnccn1)B(O)O [Bortezomib] (partner 0.002 µM)
Procedure, shortened: (§1)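 One day after seeding in 1536-well plates, lung cancer cell lines were dosed by pin tool. Dosing was either single-drug or a fixed anchor-drug dose plus five library-drug doses (not always all listed) in √10 steps. After 5 days, nuclei were stained in one fix-and-stain step and counted on 4× images, and relative viability is the nuclei count of treated wells over that of vehicle wells, given as the median of duplicate plates.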

Crenolanib + Pictilisib = compound: CC1(COc2ccc3c(c2)ncn3-c2ccc3cccc(N4CCC(N)CC4)c3n2)COC1 [Crenolanib] + CS(=O)(=O)N1CCN(Cc2cc3nc(-c4cccc5[nH]ncc45)nc(N4CCOCC4)c3s2)CC1 [Pictilisib] (partner 1 µM)
Procedure, shortened: as §1

Crenolanib + Olaparib = compound: CC1(COc2ccc3c(c2)ncn3-c2ccc3cccc(N4CCC(N)CC4)c3n2)COC1 [Crenolanib] + O=C(c1cc(Cc2n[nH]c(=O)c3ccccc23)ccc1F)N1CCN(C(=O)C2CC2)CC1 [Olaparib] (partner 8 µM)
Procedure, shortened: as §1

Tivantinib + Dasatinib = compound: O=C1NC(=O)[C@@H](c2cn3c4c(cccc24)CCC3)[C@@H]1c1c[nH]c2ccccc12 [Tivantinib] + Cc1nc(Nc2ncc(C(=O)Nc3c(C)cccc3Cl)s2)cc(N2CCN(CCO)CC2)n1 [Dasatinib] (partner 0.075 µM)
Procedure, shortened: as §1

| Cell Line | relative viability (Crenolanib + Bortezomib; first compound 0.01 µM) | relative viability (Crenolanib + Bortezomib; first compound 0.03162 µM) | relative viability (Crenolanib + Bortezomib; first compound 0.1 µM) | relative viability (Crenolanib + Bortezomib; first compound 0.3162 µM) | relative viability (Crenolanib + Bortezomib; first compound 1 µM) | relative viability (Crenolanib + Pictilisib; first compound 0.01 µM) | relative viability (Crenolanib + Pictilisib; first compound 0.03162 µM) | relative viability (Crenolanib + Pictilisib; first compound 0.1 µM) | relative viability (Crenolanib + Pictilisib; first compound 0.3162 µM) | relative viability (Crenolanib + Pictilisib; first compound 1 µM) | relative viability (Crenolanib + Olaparib; first compound 0.01 µM) | relative viability (Crenolanib + Olaparib; first compound 0.03162 µM) | relative viability (Crenolanib + Olaparib; first compound 0.1 µM) | relative viability (Crenolanib + Olaparib; first compound 0.3162 µM) | relative viability (Crenolanib + Olaparib; first compound 1 µM) | relative viability (Tivantinib + Dasatinib; first compound 0.01 µM) | relative viability (Tivantinib + Dasatinib; first compound 0.03162 µM) | relative viability (Tivantinib + Dasatinib; first compound 0.1 µM) | relative viability (Tivantinib + Dasatinib; first compound 0.3162 µM) |
| --- | --- | --- | --- | --- | --- | --- | --- | --- | --- | --- | --- | --- | --- | --- | --- | --- | --- | --- | --- |
| ChaGo-K-1 | 1.07 | 0.769 | 0.941 | 0.969 | 0.971 | 0.419 | 0.627 | 0.736 | 0.562 | 0.7 | 0.398 | 0.406 | 0.426 | 0.422 | 0.45 | 0.584 | 0.604 | 0.612 | 0.564 |
| EBC-1 | 0.798 | 0.581 | 0.573 | 0.559 | 0.462 | 0.469 | 0.423 | 0.333 | 0.357 | 0.422 | 0.768 | 0.727 | 0.667 | 0.663 | 0.641 | – | – | – | – |
| EKVX | 1.03 | 0.994 | 0.974 | 1.2 | 1.08 | 0.466 | 0.491 | 0.364 | 0.487 | 0.442 | 0.93 | 0.849 | 0.841 | 0.965 | 0.809 | 0.615 | 0.431 | 0.618 | 0.315 |
| EMC-BAC-2 | 1.19 | 1.03 | 1.01 | 1.18 | 1.01 | 0.552 | 0.523 | 0.492 | 0.578 | 0.495 | 0.559 | – | 0.466 | 0.532 | 0.462 | 0.35 | 0.307 | 0.183 | 0.343 |
| EPLC-272H | – | 0.766 | 0.747 | 0.887 | 0.874 | – | 0.327 | 0.318 | 0.255 | 0.338 | 0.854 | 0.868 | 0.605 | 1.11 | 0.989 | 0.409 | 0.343 | 0.293 | 0.176 |
| H3255 | 0.89 | 0.543 | 0.765 | 0.7 | 0.759 | 0.461 | 0.475 | 0.479 | 0.559 | 0.496 | 0.57 | 0.541 | 0.552 | 0.586 | 0.531 | 0.35 | 0.38 | 0.361 | – |
| HARA | 1.17 | 1.1 | 1.09 | 1.13 | 1.16 | 0.327 | 0.369 | 0.283 | 0.289 | 0.353 | 0.846 | 0.949 | 0.707 | 0.87 | 0.683 | 0.293 | 0.302 | 0.299 | 0.225 |
| HCC-15 | 1.15 | 1.01 | 0.909 | 1.05 | 0.956 | 0.695 | 0.731 | 0.696 | 0.644 | 0.671 | 0.828 | 0.734 | 0.726 | 0.631 | 0.63 | 0.609 | 0.591 | 0.587 | 0.639 |
| HCC-44 | 0.944 | 0.876 | 0.856 | 0.878 | 0.833 | 0.672 | 0.649 | 0.575 | 0.571 | 0.492 | 0.983 | 0.941 | 0.976 | 0.98 | 0.991 | – | – | – | – |
